Source: ChEMBL document CHEMBL2331477, “Effect of helical conformation and side chain structure on γ-secretase inhibition by β-peptide foldamers: insight into substrate recognition” (J Med Chem, 2013)
Activity calls are given as the source filed them. No cut-off for these calls is given here.

How the values were obtained:
[1] = biological target: Gamma-secretase; experiment: Inhibition of gamma-secretase (unknown origin) expressed in N2a NL/N cells coexpressing betaAPPNL and NotchdeltaE assessed as Abeta42 secretion by ELISA; type: cell-based, Homo sapiens
[2] = biological target: Gamma-secretase; experiment: Inhibition of gamma-secretase in human HEK293 cells expressing APPNL/NotchDeltaE/EGFP/UAS-firefly luciferase assessed as inhibition of Abeta42 secretion by ELISA; type: cell-based
[3] = biological target: Gamma-secretase; experiment: Inhibition of gamma-secretase in human HEK293 cells expressing APPNL/NotchDeltaE/EGFP/UAS-firefly luciferase assessed as inhibition of IAbeta40 secretion by ELISA; type: cell-based
[4] = biological target: Gamma-secretase; experiment: Inhibition of gamma-secretase in human HEK293 cells expressing APPNL/NotchDeltaE/EGFP/UAS-firefly luciferase assessed as inhibition of notch intracellular cytoplasmic domain secretion by ELISA; type: cell-based
[5] = biological target: Gamma-secretase; experiment: Inhibition of gamma-secretase (unknown origin) expressed in N2a NL/N cells coexpressing betaAPPNL and NotchdeltaE assessed as Abeta40 secretion by ELISA; type: cell-based, Homo sapiens
[6] = biological target: T1, Gamma-secretase (Homo sapiens) (UniProt Q96BI3+Q9NZ42+Q8WW43+P49768+Q92542+P49810); experiment: Ratio of IC50 for gamma-secretase-mediated inhibition of notch intracellular cytoplasmic domain secretion to IC50 for gamma-secretase-mediated inhibition of Abeta42 secretion in human HEK293 cells expressing APPNL/NotchDeltaE/EGFP/UAS-firefly luciferase by ELISA; type: cell-based
[7] = biological target: T1, Gamma-secretase (Homo sapiens); experiment: Inhibition of gamma-secretase (unknown origin) expressed in N2a NL/N cells coexpressing betaAPPNL and NotchdeltaE assessed as Abeta40 secretion at 100 nM by ELISA; type: cell-based
[8] = biological target: T1, Gamma-secretase (Homo sapiens); experiment: Inhibition of gamma-secretase (unknown origin) expressed in N2a NL/N cells coexpressing betaAPPNL and NotchdeltaE assessed as Abeta42 secretion at 100 nM by ELISA; type: cell-based
[9] = biological target: T1, Gamma-secretase (Homo sapiens); experiment: Displacement of biotinylated PS1NTF from gamma-secretase (unknown origin); type: protein-complex assay
[10] = biological target: T1, Gamma-secretase (Homo sapiens); experiment: Inhibition of gamma-secretase in human H4 glioma cells assessed as Abeta production at 0.1 to 10 µM by immunoblot analysis; type: cell-based

SMILES | IC50 [1] [nM] | IC50 [5] [nM] | inhibition [7] | inhibition [8] | other results
CC(=O)N[C@H]1CCC[C@@H]1C(=O)N[C@H]1CCC[C@@H]1C(=O)N[C@H]1CCC[C@@H]1C(=O)N[C@H]1CCC[C@@H]1C(=O)N[C@H]1CCC[C@@H]1C(=O)N[C@H]1CCC[C@@H]1C(=O)N[C@H]1CCC[C@@H]1C(=O)N[C@H]1CCC[C@@H]1C(=O)N[C@H]1CCC[C@@H]1C(=O)N[C@H]1CCC[C@@H]1C(=O)N[C@H]1CCC[C@@H]1C(=O)N[C@H]1CCC[C@@H]1C(N)=O | 9.93 | 8.81 |  |  | IC50 [2]: 626 nM; IC50 [3]: 1180 nM; IC50 [4]: 20.4 nM; Ratio IC50 [6]: 0.0326
CC(=O)N[C@H]1CCC[C@@H]1C(=O)N[C@H]1CCC[C@@H]1C(=O)NCCC(=O)N[C@H]1CCC[C@@H]1C(=O)N[C@H]1CCC[C@@H]1C(=O)N[C@H]1CCC[C@@H]1C(=O)N[C@H]1CCC[C@@H]1C(=O)N[C@H]1CCC[C@@H]1C(=O)N[C@H]1CCC[C@@H]1C(=O)N[C@H]1CCC[C@@H]1C(=O)N[C@H]1CCC[C@@H]1C(=O)N[C@H]1CCC[C@@H]1C(N)=O | 7.47 | 2.47 | Active | Active | 
CC(=O)N1CCC[C@H]1C(=O)N1CCC[C@H]1C(=O)N1CCC[C@H]1C(=O)N1CCC[C@H]1C(=O)N1CCC[C@H]1C(=O)N1CCC[C@H]1C(=O)N1CCC[C@H]1C(=O)N1CCC[C@H]1C(=O)N1CCC[C@H]1C(N)=O | > 30000 | > 30000 |  |  | 
CC(=O)N[C@H]1CCC[C@@H]1C(=O)N[C@H]1CCC[C@@H]1C(=O)N[C@H]1CCC[C@@H]1C(=O)N[C@H]1CCC[C@@H]1C(=O)N[C@H]1CCC[C@@H]1C(=O)N[C@H]1CCC[C@@H]1C(=O)N[C@H]1CCC[C@@H]1C(=O)N[C@H]1CCC[C@@H]1C(=O)N[C@H]1CCC[C@@H]1C(=O)N[C@H]1CCC[C@@H]1C(=O)N[C@H]1CCC[C@@H]1C(N)=O | 225 | 244 |  |  | 
CC(=O)N[C@H]1CCC[C@@H]1C(=O)N[C@H]1CCC[C@@H]1C(=O)N[C@@H](CC(N)=O)CC(=O)N[C@H]1CCC[C@@H]1C(=O)N[C@H]1CCC[C@@H]1C(=O)N[C@H]1CCC[C@@H]1C(=O)N[C@H]1CCC[C@@H]1C(=O)N[C@H]1CCC[C@@H]1C(=O)N[C@H]1CCC[C@@H]1C(=O)N[C@H]1CCC[C@@H]1C(=O)N[C@H]1CCC[C@@H]1C(=O)N[C@H]1CCC[C@@H]1C(N)=O | 0.88 | 0.555 | Active | Active | Activity [9]: Active; IC50 [2]: 68.4 nM; IC50 [3]: 84.6 nM; IC50 [4]: 3.16 nM; inhibition [10]: Active; Ratio IC50 [6]: 0.0462
O=S(=O)(N[C@H](CO)C(C(F)(F)F)C(F)(F)F)c1ccc(Cl)s1 [BEGACESTAT] | 414 | 203 |  |  | 
CC(=O)N1CCC[C@@H]1C(=O)N1CCC[C@@H]1C(=O)N1CCC[C@@H]1C(=O)N1CCC[C@@H]1C(=O)N1CCC[C@@H]1C(=O)N1CCC[C@@H]1C(=O)N1CCC[C@@H]1C(=O)N1CCC[C@@H]1C(=O)N1CCC[C@@H]1C(=O)N1CCC[C@@H]1C(=O)N1CCC[C@@H]1C(N)=O | > 30000 | > 30000 |  |  | 
CC(=O)N[C@H]1CCC[C@@H]1C(=O)N[C@H]1CCC[C@@H]1C(=O)N[C@H]1CCC[C@@H]1C(=O)N[C@H]1CCC[C@@H]1C(=O)N[C@H]1CCC[C@@H]1C(=O)N[C@H]1CCC[C@@H]1C(=O)N[C@H]1CCC[C@@H]1C(=O)N[C@H]1CCC[C@@H]1C(=O)N[C@H]1CCC[C@@H]1C(=O)N[C@H]1CCC[C@@H]1C(N)=O | 5210 | 2280 |  |  | 
CC(=O)N1CCC[C@H]1C(=O)N1CCC[C@H]1C(=O)N1CCC[C@H]1C(=O)N1CCC[C@H]1C(=O)N1CCC[C@H]1C(=O)N1CCC[C@H]1C(=O)N1CCC[C@H]1C(=O)N1CCC[C@H]1C(=O)N1CCC[C@H]1C(=O)N1CCC[C@H]1C(=O)N1CCC[C@H]1C(N)=O | > 30000 | > 30000 |  |  | 
CC(=O)N1CCC[C@H]1C(=O)N1CCC[C@H]1C(=O)N1CCC[C@H]1C(=O)N1CCC[C@H]1C(=O)N1CCC[C@H]1C(=O)N1CCC[C@H]1C(N)=O | > 30000 | > 30000 |  |  | 
CC(=O)N1CCC[C@@H]1C(=O)N1CCC[C@@H]1C(=O)N1CCC[C@@H]1C(=O)N1CCC[C@@H]1C(=O)N1CCC[C@@H]1C(=O)N1CCC[C@@H]1C(N)=O | > 30000 | > 30000 |  |  | 
CC(=O)N[C@H]1CCC[C@@H]1C(=O)N[C@H]1CCC[C@@H]1C(=O)NC(CO)CC(=O)N[C@H]1CCC[C@@H]1C(=O)N[C@H]1CCC[C@@H]1C(=O)N[C@H]1CCC[C@@H]1C(=O)N[C@H]1CCC[C@@H]1C(=O)N[C@H]1CCC[C@@H]1C(=O)N[C@H]1CCC[C@@H]1C(=O)N[C@H]1CCC[C@@H]1C(=O)N[C@H]1CCC[C@@H]1C(=O)N[C@H]1CCC[C@@H]1C(N)=O (single isomer, unassigned) | 0.83 | 0.402 | Active | Active | Activity [9]: Active; IC50 [2]: 86.4 nM; IC50 [3]: 84.2 nM; IC50 [4]: 41.3 nM; inhibition [10]: Active; Ratio IC50 [6]: 0.478
CC(=O)N[C@H]1CCC[C@@H]1C(=O)N[C@H]1CCC[C@@H]1C(=O)N[C@@H](CS)CC(=O)N[C@H]1CCC[C@@H]1C(=O)N[C@H]1CCC[C@@H]1C(=O)N[C@H]1CCC[C@@H]1C(=O)N[C@H]1CCC[C@@H]1C(=O)N[C@H]1CCC[C@@H]1C(=O)N[C@H]1CCC[C@@H]1C(=O)N[C@H]1CCC[C@@H]1C(=O)N[C@H]1CCC[C@@H]1C(=O)N[C@H]1CCC[C@@H]1C(N)=O |  |  | Active | Active | 
CC(=O)N[C@H]1CCC[C@@H]1C(=O)N[C@H]1CCC[C@@H]1C(=O)N[C@H]1CCC[C@@H]1C(=O)N[C@H]1CCC[C@@H]1C(=O)N[C@H]1CCC[C@@H]1C(=O)N[C@@H](CC(N)=O)CC(=O)N[C@H]1CCC[C@@H]1C(=O)N[C@H]1CCC[C@@H]1C(=O)N[C@H]1CCC[C@@H]1C(=O)N[C@H]1CCC[C@@H]1C(=O)N[C@H]1CCC[C@@H]1C(=O)N[C@H]1CCC[C@@H]1C(N)=O |  |  | inactive | inactive | 
CC(=O)N[C@H]1CCC[C@@H]1C(=O)N[C@H]1CCC[C@@H]1C(=O)N[C@@H](CCCCN)CC(=O)N[C@H]1CCC[C@@H]1C(=O)N[C@H]1CCC[C@@H]1C(=O)N[C@H]1CCC[C@@H]1C(=O)N[C@H]1CCC[C@@H]1C(=O)N[C@H]1CCC[C@@H]1C(=O)N[C@H]1CCC[C@@H]1C(=O)N[C@H]1CCC[C@@H]1C(=O)N[C@H]1CCC[C@@H]1C(=O)N[C@H]1CCC[C@@H]1C(N)=O |  |  | Active | Active | 
CC(=O)N1CCC[C@@H]1C(=O)N1CCC[C@@H]1C(=O)N1CCC[C@@H]1C(=O)N1CCC[C@@H]1C(=O)N1CCC[C@@H]1C(=O)N1CCC[C@@H]1C(=O)N1CCC[C@@H]1C(=O)N1CCC[C@@H]1C(=O)N1CCC[C@@H]1C(N)=O | > 30000 | > 30000 |  |  | 
CC(=O)N[C@H]1CCC[C@@H]1C(=O)N[C@H]1CCC[C@@H]1C(=O)N[C@H]1CCC[C@@H]1C(=O)N[C@H]1CCC[C@@H]1C(=O)N[C@H]1CCC[C@@H]1C(=O)N[C@H]1CCC[C@@H]1C(=O)N[C@H]1CCC[C@@H]1C(=O)N[C@H]1CCC[C@@H]1C(=O)N[C@@H](CCC(=O)O)CC(=O)N[C@H]1CCC[C@@H]1C(=O)N[C@H]1CCC[C@@H]1C(=O)N[C@H]1CCC[C@@H]1C(N)=O |  |  | inactive | inactive | 
